Experimental data: the supplement of paper PMC10307832

Key:
Assay in all cases: relative viability (nuclei count vs DMSO), 5 days (fraction); higher = more cells survive
Tosedostat + Linsitinib = compound: CC(C)C[C@@H](C(=O)N[C@H](C(=O)OC1CCCC1)c1ccccc1)[C@H](O)C(=O)NO [Tosedostat] + C[C@]1(O)C[C@@H](c2nc(-c3ccc4ccc(-c5ccccc5)nc4c3)c3c(N)nccn32)C1 [Linsitinib] (partner 1 µM)
Outline: (§1)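 Lung cancer cell lines in 1536-well plates were dosed by pin tool the day after seeding, either with one drug alone or with a fixed anchor-drug dose plus five library-drug doses (not always all listed) in √10 steps. After 5 days, cells were fixed and their nuclei stained in one step (final 0.05% Triton X-100, 1% formaldehyde, 1 ug/ml Hoechst), then counted on 4× images. Relative viability is the nuclei count in treated wells divided by that in vehicle wells. Values are medians of duplicate plates.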

Tosedostat + OSI-027 = compound: CC(C)C[C@@H](C(=O)N[C@H](C(=O)OC1CCCC1)c1ccccc1)[C@H](O)C(=O)NO [Tosedostat] + COc1cccc2cc(-c3nc([C@H]4CC[C@H](C(=O)O)CC4)n4ncnc(N)c34)[nH]c12 [OSI-027] (partner 0.5 µM)
Outline: as §1

Tosedostat + Phenformin = compound: CC(C)C[C@@H](C(=O)N[C@H](C(=O)OC1CCCC1)c1ccccc1)[C@H](O)C(=O)NO [Tosedostat] + N=C(N)NC(=N)NCCc1ccccc1 [Phenformin] (partner 250 µM)
Outline: as §1

[1] = compound: CC1=NN=C(O1)C2=NN=C(C=C2)N3CCC(CC3)OC4=C(C=CC(=C4)F)Cl + CCNC(=O)c1noc(-c2cc(C(C)C)c(O)cc2O)c1-c1ccc(CN2CCOCC2)cc1 [Luminespib] (partner 0.01 µM)
Outline: as §1

Row | Cell Line | relative viability (Tosedostat + Linsitinib; first compound 0.02 µM) | relative viability (Tosedostat + Linsitinib; first compound 0.06325 µM) | relative viability (Tosedostat + Linsitinib; first compound 0.2 µM) | relative viability (Tosedostat + Linsitinib; first compound 0.6325 µM) | relative viability (Tosedostat + Linsitinib; first compound 2 µM) | relative viability (Tosedostat + OSI-027; first compound 0.02 µM) | relative viability (Tosedostat + OSI-027; first compound 0.06325 µM) | relative viability (Tosedostat + OSI-027; first compound 0.2 µM) | relative viability (Tosedostat + OSI-027; first compound 0.6325 µM) | relative viability (Tosedostat + OSI-027; first compound 2 µM) | relative viability (Tosedostat + Phenformin; first compound 0.02 µM) | relative viability (Tosedostat + Phenformin; first compound 0.06325 µM) | relative viability (Tosedostat + Phenformin; first compound 0.2 µM) | relative viability (Tosedostat + Phenformin; first compound 0.6325 µM) | relative viability (Tosedostat + Phenformin; first compound 2 µM) | relative viability ([1]; first compound 0.253 µM) | relative viability ([1]; first compound 0.8 µM) | relative viability ([1]; first compound 2.53 µM) | relative viability ([1]; first compound 8 µM)
1 | CAL-12T | 0.728 | 0.762 | 0.739 | 0.709 | 0.642 | 0.9 | 0.769 | 0.76 | 0.572 | 0.457 | 0.639 | 0.552 | 0.508 | 0.446 | 0.371 | 0.362 | 0.342 | 0.501 | 0.415
2 | NCI-H727 | 0.264 | 0.266 | 0.272 | 0.168 | 0.322 | 0.583 | 0.636 |  | 0.492 | 0.419 | 0.705 | 0.485 |  | 0.442 | 0.397 | 0.531 |  | 0.6 | 0.629
3 | NCI-H1993 | 0.669 | 0.698 | 0.742 | 0.703 | 0.629 | 0.555 | 0.476 | 0.564 | 0.548 | 0.442 | 0.514 | 0.507 | 0.459 | 0.497 | 0.499 | 0.636 | 0.829 | 0.74 | 0.725
4 | NCI-H2228 | 0.792 | 0.63 | 0.686 | 0.612 | 0.525 | 0.728 | 0.574 | 0.571 | 0.387 | 0.363 | 0.334 | 0.266 | 0.291 | 0.244 | 0.175 | 0.164 | 0.15 | 0.132 | 0.131
5 | NCI-H2126 | 0.586 | 0.682 | 0.778 | 0.677 | 0.623 | 0.714 | 0.786 | 0.622 | 0.614 | 0.583 | 0.492 | 0.535 | 0.477 | 0.489 | 0.462 | 0.826 | 0.795 | 0.734 | 0.828
